The text below walks through data of patent US9434734B2, “Substituted pyrazoloquinazolinones and pyrroloquinazolinones as allosteric modulators of group II metabotropic glutamate receptors” (Domain Therapeutics, priority 2012, dated 2016).

Counter-ions that a name gives are not always drawn. Bounds are passed on as bounds.

`Cc1cc(-c2ccc3c(=O)n(CC(F)(F)F)c4cc(C5CCOCC5)nn4c3c2)cc(C)n1.Cl`: the melting point was > 250 °C.
As for `Cc1cc(-c2cc3n(C)c(=O)c4ccc(-c5ccn[nH]5)cc4n3n2)cc(C)n1.Cl`, the melting point is > 250 °C.
`Cc1ncccc1-c1ccc2c(=O)n(C)c3cc(-c4cnn(C)c4)nn3c2c1.Cl` yielded a melting point of 169 to 187 °C.
To `Cc1cc(N)nc(C)c1-c1ccc2c(=O)n(C)c3cc(-c4ccccc4)nn3c2c1.Cl` belongs > 250 °C; to `Cl.Cn1c(=O)c2ccc(-c3ccc(N)nc3C(F)(F)F)cc2n2nc(-c3ccccc3)cc12`, > 250 °C; to `Cl.Cn1c(=O)c2ccc(-c3ccc(N4CCOCC4)nc3)cc2n2nc(-c3ccccc3)cc12`, 194 to 196 °C.
`Cl.Cn1c(=O)c2ccc(-c3ccc(N4CCCCC4)nc3)cc2n2nc(-c3ccccc3)cc12` returned a melting point of 200 to 203 °C.
`COCCc1cc2n(C)c(=O)c3ccc(-c4cc(C)nc(C)c4)cc3n2n1.Cl` returned a melting point of 241 to 245 °C.
To `CCn1c(=O)c2ccc(-c3ccc(N)nc3)cc2n2nc(CCOC)cc12.Cl` belongs 163 to 170 °C; to `CCn1c(=O)c2ccc(-c3cc(C)nc(C)c3)cc2n2nc(CCOC)cc12.Cl`, 173 to 180 °C.
With `CCCn1c(=O)c2ccc(-c3ccc(N)nc3)cc2n2nc(CCOC)cc12.Cl` the figure was 96 to 102 °C; with `CCCn1c(=O)c2ccc(-c3cc(C)nc(C)c3)cc2n2nc(CCOC)cc12.Cl`, 120 to 125 °C; with `COCc1cc2n(C)c(=O)c3ccc(-c4ccc(N)nc4)cc3n2n1.Cl`, 235 to 242 °C.
To `COCc1cc2n(C)c(=O)c3ccc(-c4cc(C)nc(C)c4)cc3n2n1.Cl` belongs > 250 °C; to `CCCn1c(=O)c2ccc(-c3cc(C)nc(C)c3)cc2n2nc(C3CCCC3)cc12.Cl`, > 250 °C.
With `Cc1cc(-c2ccc3c(=O)n(CC(F)(F)F)c4cc(C5CCCC5)nn4c3c2)cc(C)n1.Cl`, the melting point is > 250 °C.
`Cl.Cn1c(=O)c2ccc(-c3ccncc3)cc2n2nc(C3CCOCC3)cc12` had a melting point of 218 to 223 °C.
In turn, `Cc1ncccc1-c1ccc2c(=O)n(C)c3cc(C4CCOCC4)nn3c2c1.Cl` came in with a melting point of 167 to 169 °C.
`Cl.Cn1c(=O)c2ccc(-c3ccc(N)nn3)cc2n2nc(C3CCOCC3)cc12` registered a melting point of 140 to 146 °C.
With `Cc1ccc(-c2ccc3c(=O)n(C)c4cc(C5CCOCC5)nn4c3c2)c(C)n1.Cl`, the melting point was 231 to 235 °C.
With `Cc1cc(-c2cc3n(C)c(=O)c4ccc(-c5ccc(N)nc5)cc4n3n2)cc(C)n1` (as salt: salt) [Example 112, 8-(6-Amino-pyridin-3-yl)-2-(2,6-dimethyl-pyridin-4-yl)-4-methyl-4H-pyrazolo[1,5-a]quinazolin-5-one] the figure was > 250 °C.
As to `Cc1cc(-c2cc3n(C)c(=O)c4ccc(-c5cccnc5C)cc4n3n2)cc(C)n1` (as salt: salt) [Example 113, 2-(2,6-Dimethyl-pyridin-4-yl)-4-methyl-8-(2-methyl-pyridin-3-yl)-4H-pyrazolo[1,5-a]quinazolin-5-one], the melting point is > 250 °C.
For `Cc1cc(-c2ccc3c(=O)n(C)c4cc(-c5cc(C)nc(C)c5)nn4c3c2)cc(C)n1` (as salt: salt) [Example 114, 2,8-Bis-(2,6-dimethyl-pyridin-4-yl)-4-methyl-4H-pyrazolo[1,5-a]quinazolin-5-one], the melting point is > 250 °C.
As for `Cc1cc(-c2cc3n(C)c(=O)c4ccc(-c5cccnc5)cc4n3n2)cc(C)n1` (as salt: salt) [Example 116, 2-(2,6-Dimethyl-pyridin-4-yl)-4-methyl-8-pyridin-3-yl-4H-pyrazolo[1,5-a]quinazolin-5-one], the melting point was > 250 °C.
`Cc1ccc(-c2ccc3c(=O)n(C)c4cc(-c5cc(C)nc(C)c5)nn4c3c2)cn1` (as salt: salt) [Example 117, 2-(2,6-Dimethyl-pyridin-4-yl)-4-methyl-8-(6-methyl-pyridin-3-yl)-4H-pyrazolo[1,5-a]quinazolin-5-one]: the melting point was > 250 °C.
For the compound `Cc1cncc(-c2ccc3c(=O)n(C)c4cc(-c5cc(C)nc(C)c5)nn4c3c2)c1` (as salt: salt) [Example 118, 2-(2,6-Dimethyl-pyridin-4-yl)-4-methyl-8-(5-methyl-pyridin-3-yl)-4H-pyrazolo[1,5-a]quinazolin-5-one], the melting point was > 250 °C.
With `Cc1cc(-c2cc3n(C)c(=O)c4ccc(-c5cnccc5C)cc4n3n2)cc(C)n1` (as salt: salt) [Example 119, 2-(2,6-Dimethyl-pyridin-4-yl)-4-methyl-8-(4-methyl-pyridin-3-yl)-4H-pyrazolo[1,5-a]quinazolin-5-one] the figure was > 250 °C; with `CCc1ncccc1-c1ccc2c(=O)n(C)c3cc(-c4cc(C)nc(C)c4)nn3c2c1` (as salt: salt) [Example 120, 2-(2,6-Dimethyl-pyridin-4-yl)-8-(2-ethyl-pyridin-3-yl)-4-methyl-4H-pyrazolo[1,5-a]quinazolin-5-one], > 250 °C; with `Cc1cc(-c2cc3n(C)c(=O)c4ccc(-c5cccnc5C)cc4n3n2)ccn1` (as salt: salt) [Example 132, 2-(2-methyl-pyridin-4-yl)-4-methyl-8-(2-methyl-pyridin-3-yl)-4H-pyrazolo[1,5-a]quinazolin-5-one], > 250 °C.
With `Cc1cc(-c2cc3n(C)c(=O)c4ccc(-c5cc(C)nc(C)c5)cc4n3n2)ccn1` (as salt: salt) [Example 133, 8-(2,6-Dimethyl-pyridin-4-yl)-4-methyl-2-(2-methyl-pyridin-4-yl)-4H-pyrazolo[1,5-a]quinazolin-5-one] the figure was > 250 °C; with `Cc1ncccc1-c1ccc2c(=O)n(C)c3cc(-c4cccnc4)nn3c2c1` (as salt: salt) [Example 134, 4-Methyl-8-(2-methyl-pyridin-3-yl)-2-pyridin-3-yl-4H-pyrazolo[1,5-a]quinazolin-5-one], > 250 °C; with `Cn1c(=O)c2ccc(-c3cccc(-c4nn[nH]n4)c3)cc2n2nc(-c3ccccc3)cc12` (as salt: sodium) [Example 36, 4-Methyl-2-phenyl-8-[3-(2H-tetrazol-5-yl)-phenyl]-4H-pyrazolo[1,5-a]quinazolin-5-one], > 250 °C.
To `Cn1c(=O)c2ccc(-c3cccc(-c4nn[nH]n4)c3)cc2n2nc(C3CCOCC3)cc12` (as salt: sodium) [Example 96, 4-Methyl-2-(tetrahydro-pyran-4-yl)-8-[3-(2H-tetrazol-5-yl)-phenyl]-4H-pyrazolo[1,5-a]quinazolin-5-one] belongs 219 to 227 °C.
Regarding `Cl.Cn1c(=O)c2ccc(-c3ccc(N)nc3)cc2n2nc(-c3ccccc3)cc12` [Example 2, 8-(6-Amino-pyridin-3-yl)-4-methyl-2-phenyl-4H-pyrazolo[1,5-a]quinazolin-5-one], the melting point lay in the range of 241 to 244 °C.
In the case of `COc1ccc(-c2ccc3c(=O)n(C)c4cc(-c5ccccc5)nn4c3c2)cc1` [Example 7, 8-(4-Methoxy-phenyl)-4-methyl-2-phenyl-4H-pyrazolo[1,5-a]quinazolin-5-one], the melting point was > 250 °C.
`COCc1cccc(-c2ccc3c(=O)n(C)c4cc(-c5ccccc5)nn4c3c2)c1` [Example 9, 8-(3-Methoxymethyl-phenyl)-4-methyl-2-phenyl-4H-pyrazolo[1,5-a]quinazolin-5-one]: the melting point is 132 to 134 °C.
Consider `COc1cccc(-c2ccc3c(=O)n(C)c4cc(-c5ccccc5)nn4c3c2)c1` [Example 11, 8-(3-Methoxy-phenyl)-4-methyl-2-phenyl-4H-pyrazolo[1,5-a]quinazolin-5-one], for which the melting point fell in the range of 182 to 185 °C.
With `Cn1c(=O)c2ccc(-c3ccc(F)cc3)cc2n2nc(-c3ccccc3)cc12` [Example 12, 8-(4-Fluoro-phenyl)-4-methyl-2-phenyl-4H-pyrazolo[1,5-a]quinazolin-5-one] the figure was 178 to 180 °C.
To `Cn1c(=O)c2ccc(-c3nn[nH]n3)cc2n2nc(-c3ccccc3)cc12` [Example 22, 4-Methyl-2-phenyl-8-(2H-tetrazol-5-yl)-4H-pyrazolo[1,5-a]quinazolin-5-one] belongs > 250 °C; to `CC(C)Cn1c(=O)c2ccc(-c3cccc(S(=O)(=O)N(C)C)c3)cc2n2nc(-c3ccccc3)cc12` [Example 41, 3-(4-isobutyl-5-oxo-2-phenyl-4,5-dihydro-pyrazolo[1,5-a]quinazolin-8-yl)-N,N-dimethyl-benzenesulfonamide], 159 to 163 °C; to `Cn1c(=O)c2ccc(-c3cn[nH]c3)cc2n2nc(C3CCOCC3)cc12` [Example 87, 4-Methyl-8-(1H-pyrazol-4-yl)-2-(tetrahydro-pyran-4-yl)-4H-pyrazolo[1,5-a]quinazolin-5-one], > 250 °C.
`COc1ccc(-c2ccc3c(=O)n(C)c4cc(-c5cnn(C)c5)nn4c3c2)cc1` [Example 125, 8-(4-Methoxy-phenyl)-4-methyl-2-(1-methyl-1H-pyrazol-4-yl)-4H-pyrazolo[1,5-a]quinazolin-5-one] returned a melting point of 211 to 213 °C.
In the case of `Cn1c(=O)c2ccc(-c3cccnc3C(F)(F)F)cc2n2nc(-c3ccnc(C(F)(F)F)c3)cc12` [Example 142, 4-Methyl-2-(2-trifluoromethyl-pyridin-4-yl)-8-(2-trifluoromethyl-pyridin-3-yl)-4H-pyrazolo[1,5-a]quinazolin-5-one], the melting point is > 250 °C.
